According to US12594283B2 (The Medical College of Wisconsin, Inc., priority 2019, dated 2026):
pIC50: −log10 of the molar value. Where two headings read alike, the source gives them in different places.

Experiments:
[1] = test system: CD4+ T cells from SMARTA triple reporter mice; test: In vitro differentiation of CD4+ T regulatory cells, flow cytometry; format: cell-based, mouse; details: for Treg (FoxP3+CD25+) differentiation and/or survival: six days culture with TGFβ and IL-2, ATO, butyl-ATO, decyl-ATO up to 60 μM; for Teff cell IFNγ production: six days culture, IFNγ-GFP positive cells within live CD4+ T cells
Excerpt: FIG. 5. In vitro differentiation of CD4^+ T regulatory cells under varying concentrations of Mito-ATOs and controls. After six days of culture, cells were stained for flow cytometry analysis. (left) Live/dead staining to assess the percentage of live CD4+ T cells within the lymphocyte gate. (middle) Teff cell function is shown as the frequency of IFNγ-GFP positive cells within the live CD4^+ T cells. (right) The percentage of Treg cells is shown as the frequency of FoxP3^+CD25^+ cells within the live CD4^+ T cells.
After six days, cells were stained to assess viability, phenotype, and function using the flow cytometry.
Mice. SMARTA triple reporter mice were generated in the following manner. First, IL-10 and IL-21 double-reporter mice^33 were generated by cross-breeding IL-21tRFP mice^34-35 with 10 BiT mice (kindly provided by Dr. Casey Weaver, University of Alabama at Birmingham). Double reporter mice were then crossed with GREAT (interferon-gamma reporter with endogenous polyA transcript) mice^36 from Jackson Laboratory (Stock No. 017581). These triple-reporter mice were then crossed with SMARTA mice^37 (kindly provided by Dr. Dorian McGavern, National Institutes of Health). Mice were bred and maintained in a closed breeding facility, and mouse handling conformed to the requirements of the Medical College of Wisconsin Institutional Animal Care and Use Committee guidelines. All experimental protocols were approved by the Medical College of Wisconsin Institutional Animal Care and Use Committee.
Cell culture. To differentiate CD4^+ T cells into a T regulatory cell phenotype, splenocytes from SMARTA triple-reporter mice were processed and the red blood cell lysed using an ACK (ammonium-chloride-potassium) lysis buffer. The cells were then activated with 1 μg/mL […] peptide (GenScript, Piscataway, NJ) and 5 ng/mL TGF-β1 (Shenandoah Biotechnology, Inc., Warwick, PA). […] Cells were cultured for six days and split once cells reached confluency; cells were replenished with IL-2 and compound accordingly. After six days in culture, cells were stained to assess the viability and phenotypic analysis via flow cytometry. LIVE/DEAD fixable violet or aqua dead cell stain (Invitrogen, Carlsbad, CA) was used to assess cell viability. The following antibodies were used for flow cytometry staining: PercP anti-mouse CD4 (clone: GK1.5; BioLegend, San Diego, CA), APC/Cy7 anti-mouse CD25 (clone: PC61; BioLegend), and PE anti-mouse FOXP3 (clone: FJK-16S; eBioscience, San Diego, CA). Flow cytometry data were acquired using a BD LSRII (BD Biosciences, CA) flow cytometer and analysed using FlowJo (Treestar, Inc., Ashland, OR).

[2] = test system: MiaPaCa-2 cells; test: MiaPaCa-2 cell proliferation, IncuCyte live-cell imaging (cell confluence); format: cell-based, human; details: for pIC50: Homo sapiens; for antiproliferative effect compared with corresponding Mito-ATO analog: MiaPaCa-2 cells, controls lacking TPP+ (FIG. 9)
Excerpt: FIG. 1. […] (A) Chemical structures of ATO and Mito-ATO analogs. […] Cell proliferation was monitored in real-time with the continuous presence of indicated treatments until the end of each experiment. […] Dashed lines represent the fitting curves used to determine their IC50 values as indicated.
(§1) The IncuCyte Live-Cell Imaging system (IncuCyte Essen Bioscience Inc., Ann Arbor, MI) was used to monitor cell proliferation.^11-13 As shown in previous publications,^11,12 this imaging system is probe-free and noninvasive, and enables continuous monitoring of cell confluence over several days. The increase in the percentage of cell confluence was used as a surrogate marker of cell proliferation. In a 96-well plate, cells were plated at 1,000 cells per well in triplicates and left to adhere overnight.

[3] = test system: MiaPaCa-2 and A549 cells; test: Cellular uptake by LC-MS/MS; format: cell-based, human; details: Mito10-ATO 0.1 and 1 μM, ATO 1-10 μM; 1, 2, 4 and 24 h
Procedure: The compounds were extracted according to the published experimental protocol.^11,12 Briefly, cells were washed twice with ice-cold DPBS (Dulbecco's Phosphate Buffered Saline) and harvested. The cell pellet was immediately frozen in liquid nitrogen and stored at −80° C. For the extraction, the pellet was homogenized in 200 μl DPBS (2 μl were taken for protein assay) and extracted twice with a dichloromethane:methanol (2:1) mixture. The organic layers were combined and dried using a SpeedVac concentrator (Thermo Fisher Scientific, Waltham MA). The dry residue was dissolved in ice-cold methanol and taken for LC-MS/MS analysis. LC-MS/MS analyses were performed using a Kinetex Phenyl-Hexyl column (50 mm×2.1 mm, 1.7 μm; Phenomenex, Torrance, CA) equilibrated with a water:acetonitrile mixture (4:1) containing 0.1% formic acid. Compounds were eluted by increasing the content of acetonitrile from 20% to 100% over 4 min and detected using the MRM (multiple reaction monitoring) mode.

[4] = test system: cyt bc1; details: P. falciparum, Y265S mutations (so in the source); cited from earlier work
[5] = target: cyt bc1 (Homo sapiens, UniProt P00156); details: mammalian cells; cited from earlier work
[6] = target: mitochondrial complex I (Homo sapiens, UniProt O75251+O75306+P03886); test: Mitochondrial complex I-driven oxygen consumption rate (Seahorse XF96) in permeabilized MiaPaCa-2 cells; format: cell-based; details: 24 h treatment
Procedure: FIG. 2. […] Relative complex I (1.5 mM malate, 10 mM pyruvate, 10 mM ADP)-driven OCR (left) and relative complex III (0.5 mM duroquinol, 10 mM ADP)-driven OCR (right) were monitored by XF-96 analyser. Either Rot (complex I inhibitor) or antimycin A (AA, complex III inhibitor) was acutely added and OCR assayed immediately. […] Dashed lines represent the fitting curves used for determination of the IC50 values.
(§2) Briefly, cells that were intact after treatments were immediately permeabilized using the Seahorse XF Plasma Membrane Permeabilizer (Agilent). The mitochondrial complex I-driven OCR was assayed in mannitol and sucrose buffer^31 containing 10 mM pyruvate and 1.5 mM malate (substrates for complex I) and 10 mM malonate (which inhibits complex II activities). The mitochondrial complex III-driven OCR was assayed in mannitol and sucrose buffer containing 0.5 mM duroquinol (substrate for complex III) and 1 μM Rot and 10 mM malonate (which inhibit both complex I and II activities). The mitochondrial complex-dependent oxygen consumption (calculated as Rot- or antimycin A-inhibitable OCR equals basal OCR less OCR after Rot or antimycin A injection) was plotted against concentrations to determine the IC50 values.

[7] = target: T1, mitochondrial complex III (Homo sapiens, UniProt P00156+P47985); test: Mitochondrial complex III-driven oxygen consumption rate (Seahorse XF96) in permeabilized MiaPaCa-2 cells; format: cell-based; details: 24 h treatment
T1 construct: endogenous in cells; host or cells: MiaPaCa-2
Procedure: FIG. 2. Effects of Mito-ATO analogs on the oxygen consumption induced by mitochondrial complexes I and III. […] MiaPaCa-2 cells were treated with Mito-ATO for 24 h. Relative complex I (1.5 mM malate, 10 mM pyruvate, 10 mM ADP)-driven OCR (left) and relative complex III (0.5 mM duroquinol, 10 mM ADP)-driven OCR (right) were monitored by XF-96 analyser. Either Rot (complex I inhibitor) or antimycin A (AA, complex III inhibitor) was acutely added and OCR assayed immediately. […] Dashed lines represent the fitting curves used for determination of the IC50 values. (n.a., not applicable).
The mitochondrial complex activities were assessed by measuring the oxygen consumption rate (OCR) using the Seahorse technique.^6,11-4 MiaPaCa-2 cells were treated separately with Mito-ATO analogs at different concentrations for 24 h and OCR was measured.
as §2, with “Mitochondrial bioenergetic function was measured in real time using the Seahorse XF 96 Extracellular Flux Analyzer (Agilent, North Billerica, MA).^11-13,22 The OCR-based assessment of mitochondrial complex activities was carried out on acutely permeabilized cells in the presence of different mitochondrial substrates, i.e., pyruvate/malate, for complex I and duroquinol for complex III.^11,14,31,32 Rot, malonate, and antimycin A (Sigma-Aldrich, St. Louis, MO) were used as specific inhibitors of mitochondrial complexes I, II, and III, respectively. Briefly,” for “Briefly,”

[8] = test system: LKR13 mouse lung cancer cells; test: LKR13 cell proliferation, IncuCyte; format: cell-based
Excerpt: (§3) FIG. 3. […] Cell proliferation was monitored in real-time with the continuous presence of indicated treatments until the end of each experiment. The cell confluence (as control groups reach 98% confluency) is plotted against concentration. Dashed lines represent the fitting curves used to determine the IC50 values as indicated.
as §1

[9] = test system: A549 human lung cancer cells; test: A549 cell proliferation, IncuCyte; format: cell-based
Excerpt: as §3, §1

[10] = test system: MDA-MB-231 human breast cancer cells; test: MDA-MB-231 cell proliferation, IncuCyte; format: cell-based; details: MDA-MB-231 cells
Excerpt: as §3, §1

[11] = test system: mitochondrial complex I; test: Complex I-driven OCR in A549, LLC and LKR13 cells; format: cell-based, human, mouse; details: A549, LLC, LKR13 cells (FIG. 4)
Procedure: (§4) FIG. 4. […] Dashed lines represent the fitting curves used for determination of the IC50 values.
(§5) Mitochondrial bioenergetic function was measured in real time using the Seahorse XF 96 Extracellular Flux Analyzer (Agilent, North Billerica, MA).^11-13,22 The OCR-based assessment of mitochondrial complex activities was carried out on acutely permeabilized cells in the presence of different mitochondrial substrates, i.e., pyruvate/malate, for complex I and duroquinol for complex III.^11,14,31,32 Rot, malonate, and antimycin A (Sigma-Aldrich, St. Louis, MO) were used as specific inhibitors of mitochondrial complexes I, II, and III, respectively. Briefly, cells that were intact after treatments were immediately permeabilized using the Seahorse XF Plasma Membrane Permeabilizer (Agilent). The mitochondrial complex I-driven OCR was assayed in mannitol and sucrose buffer^31 containing 10 mM pyruvate and 1.5 mM malate (substrates for complex I) and 10 mM malonate (which inhibits complex II activities). […] The mitochondrial complex-dependent oxygen consumption (calculated as Rot- or antimycin A-inhibitable OCR equals basal OCR less OCR after Rot or antimycin A injection) was plotted against concentrations to determine the IC50 values.

[12] = test system: mitochondrial complex III; test: Complex III-driven OCR in A549, LLC and LKR13 cells; format: cell-based, human, mouse; details: A549, LLC, LKR13 cells (FIG. 4)
Procedure: as §4, §5

[13] = test system: LLC mouse lung cancer cells; test: LLC cell proliferation, IncuCyte; format: cell-based
Excerpt: as §3, §1

Sequence of mitochondrial complex I (Homo sapiens, UniProt O75251+O75306+P03886) (O75306 34-463): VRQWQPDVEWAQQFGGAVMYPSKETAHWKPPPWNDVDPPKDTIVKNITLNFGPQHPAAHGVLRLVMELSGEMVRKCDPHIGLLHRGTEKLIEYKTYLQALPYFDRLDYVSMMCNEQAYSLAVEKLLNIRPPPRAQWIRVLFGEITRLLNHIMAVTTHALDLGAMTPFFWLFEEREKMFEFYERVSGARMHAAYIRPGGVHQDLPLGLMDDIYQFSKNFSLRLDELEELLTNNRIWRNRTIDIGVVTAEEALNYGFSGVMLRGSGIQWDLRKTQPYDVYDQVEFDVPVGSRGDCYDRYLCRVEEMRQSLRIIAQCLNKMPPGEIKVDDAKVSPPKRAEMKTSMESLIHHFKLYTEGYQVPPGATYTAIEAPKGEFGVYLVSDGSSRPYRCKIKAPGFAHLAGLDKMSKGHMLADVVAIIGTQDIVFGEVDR
Sequence of mitochondrial complex I (Homo sapiens, UniProt O75251+O75306+P03886) (O75251 39-213): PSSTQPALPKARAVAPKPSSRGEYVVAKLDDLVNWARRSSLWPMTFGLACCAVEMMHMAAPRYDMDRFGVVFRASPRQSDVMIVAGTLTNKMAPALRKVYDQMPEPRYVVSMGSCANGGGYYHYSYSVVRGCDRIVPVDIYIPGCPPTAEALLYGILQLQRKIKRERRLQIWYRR
Sequence of mitochondrial complex I (Homo sapiens, UniProt O75251+O75306+P03886) (P03886 whole entry): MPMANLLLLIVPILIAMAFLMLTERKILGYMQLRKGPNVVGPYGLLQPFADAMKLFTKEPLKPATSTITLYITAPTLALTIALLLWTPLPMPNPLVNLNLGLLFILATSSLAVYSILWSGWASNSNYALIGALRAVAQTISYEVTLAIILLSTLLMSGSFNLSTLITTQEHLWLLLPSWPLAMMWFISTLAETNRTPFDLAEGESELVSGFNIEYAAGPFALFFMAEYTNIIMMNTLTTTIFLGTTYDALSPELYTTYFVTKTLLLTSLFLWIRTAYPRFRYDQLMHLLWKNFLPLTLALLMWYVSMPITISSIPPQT
Sequence of cyt bc1 (Homo sapiens, UniProt P00156) (P00156 whole entry): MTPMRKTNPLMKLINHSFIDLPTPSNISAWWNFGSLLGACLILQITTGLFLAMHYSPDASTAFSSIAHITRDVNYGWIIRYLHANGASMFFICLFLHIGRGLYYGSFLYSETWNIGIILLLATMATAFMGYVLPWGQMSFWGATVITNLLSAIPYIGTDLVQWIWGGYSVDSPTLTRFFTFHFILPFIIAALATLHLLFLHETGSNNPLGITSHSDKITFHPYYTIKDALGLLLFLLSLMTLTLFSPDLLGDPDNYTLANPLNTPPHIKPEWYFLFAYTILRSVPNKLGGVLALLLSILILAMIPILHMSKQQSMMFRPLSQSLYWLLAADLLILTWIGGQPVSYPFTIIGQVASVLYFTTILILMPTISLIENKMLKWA

With `O=C1C(O)=C([C@H]2CC[C@H](c3ccc(Cl)cc3)CC2)C(=O)c2ccccc21` [ATO, trans-2-[4-(4-chlorophenyl)cyclohexyl]-3-hydroxy-1,4-naphthalene-dione] the “Treg (FoxP3+CD25+) differentiation and/or survival” value [1] was “did not inhibit Treg differentiation and/or survival”, the pIC50 ([2]; MIA PaCa-2, read-out: IC50, inhibition of cell proliferation (cell confluence)) was 4.74 and the “cellular uptake / intracellular accumulation” value [3] was “uptake was considerably lower and did not accumulate in cancer cells over a 24 h period”. For the same molecule, the “increase in IC50 for ATO caused by mutation at Q0 site” value [4] was ~9,000 fold and the “IC50 for inhibition of cyt bc1” value [5] was “micromolar range”.
In the case of `CCCCOC1=C([C@H]2CC[C@H](c3ccc(Cl)cc3)CC2)C(=O)c2ccccc2C1=O` [Butyl-ATO, reference compound], the “Treg (FoxP3+CD25+) differentiation and/or survival” value [1] was “did not inhibit Treg differentiation and/or survival” and the “antiproliferative effect compared with corresponding Mito-ATO analog” value [2] was “much less effective than their corresponding Mito-ATO analogs”.
In the case of `CCCCCCCCCCOC1=C([C@H]2CC[C@H](c3ccc(Cl)cc3)CC2)C(=O)c2ccccc2C1=O` [Decyl-ATO, reference compound], the “Treg (FoxP3+CD25+) differentiation and/or survival” value [1] was “did not inhibit Treg differentiation and/or survival” and the “antiproliferative effect compared with corresponding Mito-ATO analog” value [2] was “much less effective than their corresponding Mito-ATO analogs”.
For `O=C1C(OCCCC[P+](c2ccccc2)(c2ccccc2)c2ccccc2)=C([C@H]2CC[C@H](c3ccc(Cl)cc3)CC2)C(=O)c2ccccc21` [Mito4-ATO], the “Treg (FoxP3+CD25+) differentiation and/or survival” value [1] was “inhibited Foxp3^+ Treg differentiation and/or survival”, the “Teff cell IFNγ production” value [1] was “promoted Teff cell IFNγ production in a dose-dependent manner” and the “inhibition of complex I-induced oxygen consumption” value [6] was “potently inhibit”. For the same molecule, the “inhibition of complex III-induced oxygen consumption” value [7] was “potently inhibit”.
With `O=C1C(OCCCCCCCCCC[P+](c2ccccc2)(c2ccccc2)c2ccccc2)=C([C@H]2CC[C@H](c3ccc(Cl)cc3)CC2)C(=O)c2ccccc21` [Mito10-ATO] the “effect on cell proliferation” value [8] was “effective at halting cell proliferation”, the “Treg (FoxP3+CD25+) differentiation and/or survival” value [1] was “inhibited Foxp3^+ Treg differentiation and/or survival” and the “Teff cell IFNγ production” value [1] was “promoted Teff cell IFNγ production in a dose-dependent manner”. For the same molecule, the “effect on cell proliferation” value [9] was “effective at halting cell proliferation”, the “effect on cell proliferation” value [10] was “effective at halting cell proliferation” and the “inhibition of complex I-induced oxygen consumption” value [6] was “potently inhibit”. The “inhibition of complex I-induced oxygen consumption” value [11] was “inhibited both mitochondrial complex I- and III-induced oxygen consumption”, the “cellular uptake / intracellular accumulation” value [3] was “accumulated inside the cells with time” and the “inhibition of complex III-induced oxygen consumption” value [7] was “potently inhibit”. For the same molecule, the pIC50 ([7]; duroquinol, antimycin A-inhibitable OCR, read-out: IC50 to inhibit oxygen consumption by complex III) was 6.11, the “inhibition of complex III-induced oxygen consumption” value [12] was “inhibited both mitochondrial complex I- and III-induced oxygen consumption” and the “effect on cell proliferation” value [13] was “effective at halting cell proliferation”.
With `O=C1C(OCCCCCCCCCCCC[P+](c2ccccc2)(c2ccccc2)c2ccccc2)=C([C@H]2CC[C@H](c3ccc(Cl)cc3)CC2)C(=O)c2ccccc21` [Mito12-ATO] the “Treg (FoxP3+CD25+) differentiation and/or survival” value [1] was “did not appreciably inhibit Treg differentiation”, the “inhibition of complex I-induced oxygen consumption” value [6] was “inhibited only the complex I-induced oxygen consumption” and the pIC50 ([2]; MIA PaCa-2, MiaPaCa-2 pancreatic cancer cells, continuous treatment, read as control reaches 98% confluency, read-out: IC50, inhibition of cell proliferation (cell confluence)) was 6.46. For the same molecule, the “inhibition of complex III-induced oxygen consumption” value [7] was “did not inhibit”.
For `O=C1C(OCCCCCCCCCCCCCCCC[P+](c2ccccc2)(c2ccccc2)c2ccccc2)=C([C@H]2CC[C@H](c3ccc(Cl)cc3)CC2)C(=O)c2ccccc21` [Mito16-ATO], the “inhibition of complex I-induced oxygen consumption” value [6] was “inhibited only the complex I-induced oxygen consumption” and the “inhibition of complex III-induced oxygen consumption” value [7] was “did not inhibit”.
